From the supplement of paper PMC10883282

Experiments:
Assay in all cases: relative viability vs DMSO control (72 h) (fraction); higher = more viable cells
[1] = system: KHOS-240S
Procedure, shortened: (§1)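 After seeding at densities set for 80–90% confluence in 384-well plates, sarcoma cell lines waited 24 h before 2.5 µl of serially diluted compound was added. Source plates held 10 mM down to 0.0002 mM. Plates were incubated 72 h at 37 °C with 5% CO2, with 0.1% DMSO vehicle and a 5 µM positive control, and relative viability was taken from ATPLite as percent growth averaged over up to triplicate wells, with 1 set as full and 0 as none.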

[2] = system: MES-SA
Procedure, shortened: as §1

[3] = system: RD
Procedure, shortened: as §1

[4] = system: SW1353
Procedure, shortened: as §1

[5] = system: SYO-1
Procedure, shortened: as §1

N#CC1(c2ccc(NC(=O)c3cccnc3NCc3ccncc3)cc2)CCCC1 [Apatinib]
relative viability
Settings | [1] | [2] | [3] | [4] | [5]
0.00017 µM | 1.04 | 0.978 | 0.992 | 1.03 | 1.01
0.00051 µM | 1.06 | 0.958 | 1.02 | 1.005 | 1.03
0.00152 µM | 1.05 | 0.946 | 1.03 | 0.988 | 1.01
0.00457 µM | 1.04 | 0.9268 | 1.01 | 1.01 | 1.02
0.01372 µM | 1.04 | 0.929 | 1.02 | 0.9811 | 1.01
0.04115 µM | 1.05 | 0.939 | 1.01 | 0.992 | 1.02
0.1235 µM | 1.03 | 0.928 | 1.02 | 0.981 | 0.957
0.3704 µM | 0.991 | 0.938 | 1.01 | 0.948 | 0.91
1.111 µM | 0.97 | 0.885 | 1.05 | 0.935 | 0.747
3.333 µM | 0.956 | 0.875 | 1.09 | 0.994 | 0.678
10 µM | 0.873 | 0.773 | 1.12 | 0.928 | 0.552

CC(C)Oc1ccc(-c2nn([C@@H](C)c3oc4ccc(F)cc4c(=O)c3-c3cccc(F)c3)c3ncnc(N)c23)cc1F [Umbralisib]
relative viability
Settings | [1] | [2] | [3] | [4] | [5]
0.00017 µM | 1.05 | 0.946 | 1.1 | 1.03 | 1.04
0.00051 µM | 1.08 | 0.928 | 1.08 | 1.03 | 1.02
0.00152 µM | 1.09 | 0.94 | 1.11 | 1.032 | 1.03
0.00457 µM | 1.08 | 0.981 | 1.1 | 1.06 | 1.03
0.01372 µM | 1.07 | 0.957 | 1.113 | 1.03 | 1.03
0.04115 µM | 1.06 | 0.9436 | 1.11 | 1 | 0.995
0.1235 µM | 1.07 | 0.943 | 1.12 | 1.01 | 1.01
0.3704 µM | 1.06 | 0.945 | 1.08 | 0.959 | 1.02
1.111 µM | 1.03 | 0.937 | 1.14 | 0.97 | 0.975
3.333 µM | 1 | 0.922 | 1.11 | 0.946 | 0.968
10 µM | 0.909 | 0.747 | 1.11 | 0.8866 | 0.897
